In PubChem BioAssay AID504606 (National Center for Advancing Translational Sciences (NCATS), 2011):
≈ marks a conversion by molar mass, not a printed value.

Tested on: kinetic aqueous solubility, PBS pH 7.4, LC-UV/MS
Assay: Inhibitors of HPGD: Aqueous Solubility Profiling
Conditions: stronger effect = higher value

Row | solubility [µM] | Structure (SMILES)
1 | 35.9 (≈ 11 µg/mL) | Cc1cc(-c2nnc3n2CCCCC3)c(C)n1-c1ccccc1
2 | 3 (≈ 0.958 µg/mL) | Cc1cccc(-n2cnc3cc(C(=O)N4CCCCC4)ccc32)c1
